In ChEMBL document CHEMBL6127085, “Design, synthesis and evaluation of novel LpxC inhibitors containing a hydrazone moiety as Gram-negative antibacterial agents” (Eur J Med Chem, 2024) one finds MIC data, which are given here for 22 molecules.

What all share (type): functional
Holding throughout (conditions): time 18-24 hrs

Test [1] has as its system Escherichia coli. The test is described as follows: Antibacterial activity against Escherichia coli ATCC25922 assessed as reduction in bacterial growth measured after 18 to 24 hrs by CLSI protocol based method.
Test [2] has as its system Pseudomonas aeruginosa. The experiment in a line: Antibacterial activity against Pseudomonas aeruginosa ATCC27853 assessed as reduction in bacterial growth measured after 18 to 24 hrs by CLSI protocol based method.
The subject of test [3] is Pseudomonas aeruginosa. The experiment in a line: Antibacterial activity against Pseudomonas aeruginosa clinical isolate PAE22-1 assessed as reduction in bacterial growth measured after 18 to 24 hrs by CLSI protocol based method.
For test [4], the system named is Klebsiella pneumoniae. The experiment in a line: Antibacterial activity against Klebsiella pneumoniae ATCC700603 assessed as reduction in bacterial growth measured after 18 to 24 hrs by CLSI protocol based method.
In test [5] the test system is Klebsiella pneumoniae. The experiment in a line: Antibacterial activity against Klebsiella pneumoniae clinical isolate KPN+22-1 assessed as reduction in bacterial growth measured after 18 to 24 hrs by CLSI protocol based method.

≈ marks a conversion by molar mass, not a printed value. Bounds are passed on as bounds.

As usually defined, the MIC is the smallest concentration in the dilution series that meets the test's criterion for growth inhibition. For the molecule `C[C@@H](O)[C@H](NC(=O)c1ccc(C#Cc2ccc(/C=N/N3CCCCC3)cc2)cc1)C(=O)NO`, the MIC stood at 0.25 µg/mL (≈ 0.557 µM) in test [1]; 32 µg/mL (≈ 71.3 µM) in test [2]; 4 µg/mL (≈ 8.92 µM) in test [3]; 32 µg/mL (≈ 71.3 µM) in test [4]; 1 µg/mL (≈ 2.23 µM) in test [5].

For the molecule `C[C@@H](O)[C@H](NC(=O)c1ccc(C#Cc2ccc(/C=N/N3CCN(C)CC3)cc2)cc1)C(=O)NO`, the MIC in test [1] was found to be 1 µg/mL (≈ 2.16 µM); in test [2], 2 µg/mL (≈ 4.31 µM); in test [3], 2 µg/mL (≈ 4.31 µM); in test [4], 8 µg/mL (≈ 17.3 µM); in test [5], 2 µg/mL (≈ 4.31 µM).

For `C[C@@H](O)[C@H](NC(=O)c1ccc(C#Cc2ccc(/C=N/N3CCCCC3)nc2)cc1)C(=O)NO`, the MIC in test [1] was 1 µg/mL (≈ 2.22 µM); in test [2], 16 µg/mL (≈ 35.6 µM); in test [3], 2 µg/mL (≈ 4.45 µM); in test [5] it was 8 µg/mL (≈ 17.8 µM).

Consider `C[C@@H](O)[C@H](NC(=O)c1ccc(C#Cc2ccc(/C=N/N3CCN(S(C)(=O)=O)CC3)cc2)cc1)C(=O)NO`, for which the MIC is 0.5 µg/mL (≈ 0.948 µM) in test [1]; greater than 64 µg/mL in test [2]; greater than 64 µg/mL in test [3]; greater than 64 µg/mL in test [4]; greater than 64 µg/mL in test [5].

For the molecule `CCOC(=O)N1CCN(/N=C/c2ccc(C#Cc3ccc(C(=O)N[C@H](C(=O)NO)[C@@H](C)O)cc3)cn2)CC1`, the minimal inhibitory concentration (MIC) was 2 µg/mL (≈ 3.83 µM) in test [1]; 16 µg/mL (≈ 30.6 µM) in test [2]; 8 µg/mL (≈ 15.3 µM) in test [3]; greater than 64 µg/mL in test [4]; 32 µg/mL (≈ 61.2 µM) in test [5].

Regarding `C[C@@H](O)[C@H](NC(=O)c1ccc(C#Cc2ccc(/C=N/N3CCN(C(=O)C(C)(C)C)CC3)nc2)cc1)C(=O)NO`, the minimal inhibitory concentration (MIC) in test [1] was 4 µg/mL (≈ 7.48 µM); in test [2], 16 µg/mL (≈ 29.9 µM); in test [3], 16 µg/mL (≈ 29.9 µM); in test [4], greater than 64 µg/mL; in test [5], 16 µg/mL (≈ 29.9 µM).

For the molecule `CC(=O)N1CCN(/N=C/c2ccc(C#Cc3ccc(C(=O)N[C@H](C(=O)NO)[C@@H](C)O)cc3)cc2)CC1`, the MIC is 0.5 µg/mL (≈ 1.02 µM) in test [1]; greater than 64 µg/mL in test [2]; 2 µg/mL (≈ 4.07 µM) in test [3]; greater than 64 µg/mL in test [4]; 2 µg/mL (≈ 4.07 µM) in test [5].

In the case of `CCC(=O)N1CCN(/N=C/c2ccc(C#Cc3ccc(C(=O)N[C@H](C(=O)NO)[C@@H](C)O)cc3)cn2)CC1`, the MIC in test [1] is 8 µg/mL (≈ 15.8 µM); in test [2], 16 µg/mL (≈ 31.6 µM); in test [3], 16 µg/mL (≈ 31.6 µM); in test [4] it was greater than 64 µg/mL; in test [5], 32 µg/mL (≈ 63.2 µM).

With `CCOC(=O)N1CCN(/N=C/c2ccc(C#Cc3ccc(C(=O)N[C@H](C(=O)NO)[C@@H](C)O)cc3)cc2)CC1`, the MIC in test [1] was 0.06 µg/mL (≈ 0.115 µM); in test [2], 8 µg/mL (≈ 15.3 µM); in test [3], 8 µg/mL (≈ 15.3 µM); in test [4] it was 16 µg/mL (≈ 30.7 µM); in test [5], 4 µg/mL (≈ 7.67 µM).

Take `C[C@@H](O)[C@H](NC(=O)c1ccc(C#Cc2ccc(/C=N/N3CCN(C(=O)N(C)C)CC3)cc2)cc1)C(=O)NO`: the minimal inhibitory concentration (MIC) in test [1] is 0.5 µg/mL (≈ 0.96 µM); in test [2], 8 µg/mL (≈ 15.4 µM); in test [3], 4 µg/mL (≈ 7.68 µM); in test [4], 16 µg/mL (≈ 30.7 µM); in test [5] it was 2 µg/mL (≈ 3.84 µM).

On to `C[C@@H](O)[C@H](NC(=O)c1ccc(C#Cc2ccc(/C=N/N3CCCC3)nc2)cc1)C(=O)NO`, for which the MIC is 2 µg/mL (≈ 4.59 µM) in test [1], greater than 64 µg/mL in test [2], 4 µg/mL (≈ 9.19 µM) in test [3] and greater than 64 µg/mL in test [5].

Take `O=C(NO)C1CN(c2ccc(C#Cc3ccc(/C=N/N4CCCC4)cc3)cc2)C(=O)O1` (configuration not stated): the minimum inhibitory concentration (MIC) in test [1], in test [3] and in test [5] was greater than 64 µg/mL in each case.

`C[C@@H](O)[C@H](NC(=O)c1ccc(C#Cc2ccc(/C=N/N3CCN(C4CCCC4)CC3)cc2)cc1)C(=O)NO`: the minimal inhibitory concentration (MIC) is 2 µg/mL (≈ 3.86 µM) in test [1]; greater than 64 µg/mL in test [2]; 32 µg/mL (≈ 61.8 µM) in test [3]; greater than 64 µg/mL in test [4]; 32 µg/mL (≈ 61.8 µM) in test [5].

For the molecule `C[C@@H](O)[C@H](NC(=O)c1ccc(C#Cc2ccc(/C=N/N3CCN(C)CC3)nc2)cc1)C(=O)NO`, the MIC stood at 8 µg/mL (≈ 17.2 µM) in test [1], 8 µg/mL (≈ 17.2 µM) in test [2], 8 µg/mL (≈ 17.2 µM) in test [3] and 32 µg/mL (≈ 68.9 µM) in test [5].

As to `CCN1CCN(/N=C/c2ccc(C#Cc3ccc(C(=O)N[C@H](C(=O)NO)[C@@H](C)O)cc3)cn2)CC1`, the minimum inhibitory concentration (MIC) is 16 µg/mL (≈ 33.4 µM) in test [1]; 4 µg/mL (≈ 8.36 µM) in test [2]; 8 µg/mL (≈ 16.7 µM) in test [3]; greater than 64 µg/mL in test [4]; 64 µg/mL (≈ 134 µM) in test [5].

For the molecule `O=C(NO)C1CN(c2ccc(C#Cc3ccc(/C=N/N4CCOCC4)cc3)cc2)C(=O)O1` (configuration not stated), the MIC was 1 µg/mL (≈ 2.3 µM) in test [1], greater than 64 µg/mL in test [3] and 8 µg/mL (≈ 18.4 µM) in test [5].

`C[C@@H](O)[C@H](NC(=O)c1ccc(C#Cc2ccc(/C=N/N3CCN(C(=O)OC(C)(C)C)CC3)cc2)cc1)C(=O)NO`: the MIC in test [1] was 1 µg/mL (≈ 1.82 µM); in test [2] it was greater than 64 µg/mL; in test [3], 16 µg/mL (≈ 29.1 µM); in test [4], greater than 64 µg/mL; in test [5], 8 µg/mL (≈ 14.6 µM).

As to `C[C@@H](O)[C@H](NC(=O)c1ccc(C#Cc2ccc(/C=N/N3CCNCC3)cc2)cc1)C(=O)NO`, the MIC in test [1] was 4 µg/mL (≈ 8.9 µM); in test [2], greater than 64 µg/mL; in test [3] it was greater than 64 µg/mL; in test [4] it was greater than 64 µg/mL; in test [5], greater than 64 µg/mL.

With `C[C@@H](O)[C@H](NC(=O)c1ccc(C#Cc2ccc(/C=N/N3CCS(=O)(=O)CC3)cc2)cc1)C(=O)NO`, the minimum inhibitory concentration (MIC) in test [1] turned out to be 1 µg/mL (≈ 2.01 µM); in test [2], 4 µg/mL (≈ 8.02 µM); in test [3], 4 µg/mL (≈ 8.02 µM); in test [4] it was 16 µg/mL (≈ 32.1 µM); in test [5], 4 µg/mL (≈ 8.02 µM).

For `CCN1CCN(/N=C/c2ccc(C#Cc3ccc(C(=O)N[C@H](C(=O)NO)[C@@H](C)O)cc3)cc2)CC1`, the minimum inhibitory concentration (MIC) was 0.5 µg/mL (≈ 1.05 µM) in test [1]; 4 µg/mL (≈ 8.38 µM) in test [2]; 2 µg/mL (≈ 4.19 µM) in test [3]; 16 µg/mL (≈ 33.5 µM) in test [4]; 4 µg/mL (≈ 8.38 µM) in test [5].

Regarding `C[C@@H](O)[C@H](NC(=O)c1ccc(C#Cc2ccc(/C=N/N3CCOCC3)nc2)cc1)C(=O)NO`, the MIC stood at 4 µg/mL (≈ 8.86 µM) in test [1], 16 µg/mL (≈ 35.4 µM) in test [2], 2 µg/mL (≈ 4.43 µM) in test [3] and 16 µg/mL (≈ 35.4 µM) in test [5].

For `C#CCN1CCN(/N=C/c2ccc(C#Cc3ccc(C(=O)N[C@H](C(=O)NO)[C@@H](C)O)cc3)cc2)CC1`, the minimal inhibitory concentration (MIC) in test [1] turned out to be 0.03 µg/mL (≈ 0.0615 µM); in test [2], 2 µg/mL (≈ 4.1 µM); in test [3], 8 µg/mL (≈ 16.4 µM); in test [4] it was 32 µg/mL (≈ 65.6 µM); in test [5], 2 µg/mL (≈ 4.1 µM).
